Measurements from ChEMBL document CHEMBL1201861, “Genomics of Drug Sensitity in Cancer screening data, Wellcome Trust Sanger Institute”.

Assays:
Experiment in all cases: cells
CTB-1 = format: functional, cell-based; conditions: Homo sapiens
Description: SANGER: Inhibition of human CTB-1 cell growth in a cell viability assay.

CTV-1 = format: functional, cell-based; conditions: Homo sapiens;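 also: growth inhibition of the cell line, read out with a cell viability assay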
Description: SANGER: Inhibition of human CTV-1 cell growth in a cell viability assay.

Ca-Ski = format: functional, cell-based; conditions: Homo sapiens;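 also: cell viability assay measuring inhibition of Ca-Ski cell growth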
Description: SANGER: Inhibition of human Ca-Ski cell growth in a cell viability assay.

D-263MG = format: functional, cell-based, Homo sapiens; conditions: Homo sapiens, D-263MG
Description: SANGER: Inhibition of human D-263MG cell growth in a cell viability assay.

DMS-114 = format: functional, cell-based, Homo sapiens; conditions: Homo sapiens, DMS-114
ETK-1 = format: functional, cell-based, Homo sapiens; conditions: Homo sapiens, ETK-1;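 also: growth inhibition of human ETK-1 cells, read out with a cell viability assay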
Description: SANGER: Inhibition of human ETK-1 cell growth in a cell viability assay.

G-401 = format: functional, cell-based, Homo sapiens; conditions: Homo sapiens, G-401
Description: SANGER: Inhibition of human G-401 cell growth in a cell viability assay.

GCT = format: functional, cell-based, Homo sapiens; conditions: Homo sapiens, GCT;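 also: GCT cell line proliferation inhibition, read out with a cell viability assay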
Description: SANGER: Inhibition of human GCT cell growth in a cell viability assay.

HCC1806 = format: functional, cell-based, Homo sapiens; conditions: Homo sapiens, HCC1806;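 also: growth inhibition of the cancer cell line, determined with a cell viability assay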
Description: SANGER: Inhibition of human HCC1806 cell growth in a cell viability assay.

HEC-1 = format: functional, cell-based, Homo sapiens; conditions: Homo sapiens, HEC-1;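 also: growth inhibition of the cell line, read out with a cell viability assay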
Description: SANGER: Inhibition of human HEC-1 cell growth in a cell viability assay.

HT = format: functional, cell-based; conditions: Homo sapiens
Description: SANGER: Inhibition of human HT cell growth in a cell viability assay.

HT1197 = format: functional, cell-based, Homo sapiens, HT-1197; conditions: Homo sapiens, HT1197
Description: SANGER: Inhibition of human HT-1197 cell growth in a cell viability assay.

IA-LM = format: functional, cell-based, Homo sapiens; conditions: Homo sapiens, IA-LM;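 also: cell viability assay measuring growth inhibition of human IA-LM cells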
Description: SANGER: Inhibition of human IA-LM cell growth in a cell viability assay.

KALS-1 = format: functional, cell-based, Homo sapiens; conditions: Homo sapiens, KALS-1;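 also: growth inhibition of KALS-1 cells, determined with a cell viability assay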
Description: SANGER: Inhibition of human KALS-1 cell growth in a cell viability assay.

KP-4 = format: functional, cell-based, Homo sapiens; conditions: Homo sapiens, KP-4; read-out: IC50;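 also: human KP-4 cells, with growth inhibition read out through a cell viability assay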
Description: SANGER: Inhibition of human KP-4 cell growth in a cell viability assay.

KYSE-520 cell line = format: functional, cell-based, Homo sapiens; conditions: Homo sapiens, KYSE-520;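 also: growth inhibition of human KYSE-520 cells, read out with a viability assay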
Description: SANGER: Inhibition of human KYSE-520 cell growth in a cell viability assay.

LAMA-84 = format: functional, cell-based; conditions: Homo sapiens;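 also: growth inhibition of LAMA-84 cells, read out with a cell viability assay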
Description: SANGER: Inhibition of human LAMA-84 cell growth in a cell viability assay.

LB2241-RCC = format: functional, cell-based, Homo sapiens; conditions: Homo sapiens, LB2241-RCC;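 also: cell viability assay measuring how strongly the cultured human renal carcinoma line is prevented from growing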
Description: SANGER: Inhibition of human LB2241-RCC cell growth in a cell viability assay.

Lu-65 = format: functional, cell-based; conditions: Homo sapiens;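 also: growth inhibition of Lu-65 cancer cells, read out by a cell viability assay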
Description: SANGER: Inhibition of human LU-65 cell growth in a cell viability assay.

MCF7 = format: functional, cell-based, Homo sapiens; conditions: Homo sapiens, MCF7;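 also: growth inhibition of human MCF7 cells, read out with a cell viability assay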
Description: SANGER: Inhibition of human MCF7 cell growth in a cell viability assay.

MG-63 = format: functional, cell-based, Homo sapiens; conditions: Homo sapiens, MG-63;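 also: growth inhibition of human MG-63 cells, read out with a cell viability assay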
Description: SANGER: Inhibition of human MG-63 cell growth in a cell viability assay.

NB12 = format: functional, cell-based, Homo sapiens; conditions: Homo sapiens, NB12;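 also: growth inhibition of human NB12 cells, read out by a cell viability assay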
Description: SANGER: Inhibition of human NB12 cell growth in a cell viability assay.

NB13 = format: functional, cell-based, Homo sapiens; conditions: Homo sapiens, NB13;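 also: cell viability readout measuring growth inhibition of human NB13 cells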
Description: SANGER: Inhibition of human NB13 cell growth in a cell viability assay.

NB69 = format: functional, cell-based, Homo sapiens; conditions: Homo sapiens, NB69;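 also: growth inhibition of NB69 cells, determined by a cell viability assay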
Description: SANGER: Inhibition of human NB69 cell growth in a cell viability assay.

NCI-H1395 = format: functional, cell-based, Homo sapiens; conditions: Homo sapiens, NCI-H1395;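 also: cell viability assay read-out quantifying reduced proliferation of human NCI-H1395 cells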
Description: SANGER: Inhibition of human NCI-H1395 cell growth in a cell viability assay.

NCI-H1563 = format: functional, cell-based, Homo sapiens; conditions: Homo sapiens, NCI-H1563;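 also: growth inhibition of human NCI-H1563 cells, read out with a cell viability assay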
Description: SANGER: Inhibition of human NCI-H1563 cell growth in a cell viability assay.

NCI-H1838 = format: functional, cell-based, Homo sapiens; conditions: Homo sapiens, NCI-H1838;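 also: growth inhibition of NCI-H1838 cells, determined with a cell viability readout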
Description: SANGER: Inhibition of human NCI-H1838 cell growth in a cell viability assay.

NCI-H2087 = format: functional, cell-based, Homo sapiens; conditions: Homo sapiens, NCI-H2087;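 also: growth inhibition determined with a cell viability readout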
Description: SANGER: Inhibition of human NCI-H2087 cell growth in a cell viability assay.

NCI-H2122 = format: functional, cell-based, Homo sapiens; conditions: Homo sapiens, NCI-H2122;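 also: growth inhibition of the cells, read out with a cell viability assay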
Description: SANGER: Inhibition of human NCI-H2122 cell growth in a cell viability assay.

NCI-H2126 = format: functional, cell-based, Homo sapiens; conditions: Homo sapiens, NCI-H2126;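 also: growth inhibition of the cancer cell line, determined with a cell viability readout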
Description: SANGER: Inhibition of human NCI-H2126 cell growth in a cell viability assay.

NEC8 = format: functional, cell-based, Homo sapiens; conditions: Homo sapiens, NEC8;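 also: growth inhibition of human NEC8 cells, read out by a cell viability assay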
Description: SANGER: Inhibition of human NEC8 cell growth in a cell viability assay.

OS-RC-2 = format: functional, cell-based, Homo sapiens; conditions: Homo sapiens, OS-RC-2;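 also: growth inhibition of human OS-RC-2 cells, measured by a cell viability assay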
Description: SANGER: Inhibition of human OS-RC-2 cell growth in a cell viability assay.

SAS = format: functional, cell-based, Homo sapiens; conditions: Homo sapiens, SAS;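 also: growth inhibition of SAS cells, read out with a cell viability assay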
Description: SANGER: Inhibition of human SAS cell growth in a cell viability assay.

SK-MEL-24 = format: functional, cell-based; conditions: Homo sapiens;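 also: growth inhibition read out by a cell viability assay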
Description: SANGER: Inhibition of human SK-MEL-24 cell growth in a cell viability assay.

SK-MEL-28 = format: functional, cell-based; conditions: Homo sapiens;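 also: growth inhibition of human SK-MEL-28 cells, read out with a cell viability assay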
Description: SANGER: Inhibition of human SK-MEL-28 cell growth in a cell viability assay.

SK-N-FI = format: functional, cell-based, Homo sapiens; conditions: Homo sapiens, SK-N-FI;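 also: cell viability assay measuring growth inhibition of human SK-N-FI cells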
Description: SANGER: Inhibition of human SK-N-FI cell growth in a cell viability assay.

SK-NEP-1 = format: functional, cell-based; conditions: Homo sapiens;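 also: growth inhibition of human SK-NEP-1 cells, read out by a cell viability assay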
Description: SANGER: Inhibition of human SK-NEP-1 cell growth in a cell viability assay.

SW1783 = format: functional, cell-based; conditions: Homo sapiens;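 also: cell growth inhibition measured with a viability assay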
Description: SANGER: Inhibition of human SW1783 cell growth in a cell viability assay.

SW626 = format: functional, cell-based, Homo sapiens; conditions: Homo sapiens, SW626;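 also: growth inhibition of SW626 cells, measured with a cell viability assay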
Description: SANGER: Inhibition of human SW626 cell growth in a cell viability assay.

SW684 = format: functional, cell-based, Homo sapiens; conditions: Homo sapiens, SW684;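 also: growth inhibition of human SW684 cells, measured by a cell viability assay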
Description: SANGER: Inhibition of human SW684 cell growth in a cell viability assay.

SW948 = format: functional, cell-based, Homo sapiens; conditions: Homo sapiens, SW948;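 also: growth inhibition of SW948 cells, read out with a cell viability assay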
Description: SANGER: Inhibition of human SW948 cell growth in a cell viability assay.

SW 962 = format: functional, cell-based, Homo sapiens; conditions: Homo sapiens, SW 962;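 also: growth inhibition of human SW962 cells, read out by a cell viability assay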
Description: SANGER: Inhibition of human SW962 cell growth in a cell viability assay.

5637 = format: functional, cell-based, Homo sapiens; conditions: Homo sapiens
Description: SANGER: Inhibition of human 5637 cell growth in a cell viability assay.

A101D = format: functional, cell-based, Homo sapiens; conditions: Homo sapiens, A101D;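 also: growth inhibition of the cell line, measured with a viability assay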
Description: SANGER: Inhibition of human A101D cell growth in a cell viability assay.

ALL-PO = format: functional, cell-based; conditions: Homo sapiens;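 also: growth inhibition of ALL-PO cells, read out by a cell viability assay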
Description: SANGER: Inhibition of human ALL-PO cell growth in a cell viability assay.

BHY = format: functional, cell-based, Homo sapiens; conditions: Homo sapiens, BHY;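 also: cell growth inhibition read out by a viability assay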
Description: SANGER: Inhibition of human BHY cell growth in a cell viability assay.

BT-20 = format: functional, cell-based, Homo sapiens; conditions: Homo sapiens, BT-20;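 also: cell viability assay measuring suppression of growth in human BT-20 cells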
Description: SANGER: Inhibition of human BT-20 cell growth in a cell viability assay.

Becker = format: functional, cell-based, Homo sapiens; conditions: Homo sapiens, Becker;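 also: growth inhibition of Becker cells, read out with a cell viability assay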
Description: SANGER: Inhibition of human Becker cell growth in a cell viability assay.

BXPC-3 = format: functional, cell-based, Homo sapiens; conditions: Homo sapiens, BXPC-3;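 also: growth inhibition of human BxPC-3 cells, read out by a cell viability assay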
Description: SANGER: Inhibition of human BxPC-3 cell growth in a cell viability assay.

UACC-893 = format: functional, cell-based, Homo sapiens; conditions: Homo sapiens, UACC-893
Description: SANGER: Inhibition of human UACC-893 cell growth in a cell viability assay.

YKG-1 = format: functional, cell-based, Homo sapiens; conditions: Homo sapiens, YKG-1;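 also: cell growth inhibition, read out with a viability assay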
Description: SANGER: Inhibition of human YKG-1 cell growth in a cell viability assay.

For `COc1cc(F)c(F)c(Nc2ccc(I)cc2F)c1NS(=O)(=O)C1(CC(O)CO)CC1` (stereo not drawn), the IC50 (CTB-1) was over 5000 nM, the IC50 (CTV-1) was 4960 nM and the IC50 (Ca-Ski) was over 5000 nM. The IC50 (D-263MG) was 431 nM, the IC50 (DMS-114) was over 5000 nM and the IC50 (ETK-1) was 4240 nM. For the same compound, the IC50 (G-401) was 1970 nM, the IC50 (GCT) was over 5000 nM and the IC50 (HCC1806) was over 5000 nM. It also gave an IC50 (HEC-1) of over 5000 nM, an IC50 (HT) of over 5000 nM and an IC50 (HT1197) of over 5000 nM. The IC50 (IA-LM) was 4190 nM, the IC50 (KALS-1) was over 5000 nM and the IC50 (KP-4) was over 5000 nM. The IC50 (KYSE-520 cell line) was 2960 nM, the IC50 (LAMA-84) was 318 nM and the IC50 (LB2241-RCC) was 3300 nM. It also gave an IC50 (Lu-65) of 3280 nM, an IC50 (MCF7) of over 5000 nM and an IC50 (MG-63) of 2820 nM. It also gave an IC50 (NB12) of over 5000 nM, an IC50 (NB13) of over 5000 nM and an IC50 (NB69) of 557 nM. For the same compound, the IC50 (NCI-H1395) was over 5000 nM, the IC50 (NCI-H1563) was 4470 nM and the IC50 (NCI-H1838) was over 5000 nM. It also gave an IC50 (NCI-H2087) of 2420 nM, an IC50 (NCI-H2122) of 2170 nM and an IC50 (NCI-H2126) of over 5000 nM. It also gave an IC50 (NEC8) of over 5000 nM, an IC50 (OS-RC-2) of over 5000 nM and an IC50 (SAS) of 3940 nM. It also gave an IC50 (SK-MEL-24) of over 5000 nM, an IC50 (SK-MEL-28) of 115 nM and an IC50 (SK-N-FI) of 1880 nM. It also gave an IC50 (SK-NEP-1) of over 5000 nM, an IC50 (SW1783) of over 5000 nM and an IC50 (SW626) of 279 nM. The IC50 (SW684) was over 5000 nM, the IC50 (SW948) was over 5000 nM and the IC50 (SW 962) was 1500 nM. The IC50 5637 was over 5000 nM, the IC50 (A101D) was 51.2 nM and the IC50 (ALL-PO) was over 5000 nM. For the same compound, the IC50 (BHY) was 3290 nM, the IC50 (BT-20) was over 5000 nM and the IC50 (Becker) was over 5000 nM. It also gave an IC50 (BXPC-3) of 1600 nM, an IC50 (UACC-893) of over 5000 nM and an IC50 (YKG-1) of 938 nM.

For `O=C1N=C(NCc2cccs2)S/C1=C\c1ccc2ncccc2c1`, the IC50 (CTB-1) was over 5000 nM, the IC50 (CTV-1) was over 5000 nM and the IC50 (Ca-Ski) was over 5000 nM. It also gave an IC50 (D-263MG) of over 5000 nM, an IC50 (DMS-114) of over 5000 nM and an IC50 (ETK-1) of over 5000 nM. For the same compound, the IC50 (G-401) was over 5000 nM, the IC50 (GCT) was over 5000 nM and the IC50 (HCC1806) was over 5000 nM. For the same compound, the IC50 (HEC-1) was over 5000 nM, the IC50 (HT) was over 5000 nM and the IC50 (HT1197) was over 5000 nM. The IC50 (IA-LM) was over 5000 nM, the IC50 (KALS-1) was over 5000 nM and the IC50 (KP-4) was over 5000 nM. The IC50 (KYSE-520 cell line) was over 5000 nM, the IC50 (LAMA-84) was over 5000 nM and the IC50 (LB2241-RCC) was over 5000 nM. The IC50 (Lu-65) was over 5000 nM, the IC50 (MCF7) was over 5000 nM and the IC50 (MG-63) was over 5000 nM. The IC50 (NB12) was over 5000 nM, the IC50 (NB13) was over 5000 nM and the IC50 (NB69) was over 5000 nM. For the same compound, the IC50 (NCI-H1395) was over 5000 nM, the IC50 (NCI-H1563) was over 5000 nM and the IC50 (NCI-H1838) was over 5000 nM. The IC50 (NCI-H2087) was over 5000 nM, the IC50 (NCI-H2122) was over 5000 nM and the IC50 (NCI-H2126) was over 5000 nM. It also gave an IC50 (NEC8) of 4470 nM, an IC50 (OS-RC-2) of over 5000 nM and an IC50 (SAS) of over 5000 nM. It also gave an IC50 (SK-MEL-24) of over 5000 nM, an IC50 (SK-MEL-28) of over 5000 nM and an IC50 (SK-N-FI) of over 5000 nM. It also gave an IC50 (SK-NEP-1) of over 5000 nM, an IC50 (SW1783) of over 5000 nM and an IC50 (SW626) of over 5000 nM. For the same compound, the IC50 (SW684) was over 5000 nM, the IC50 (SW948) was over 5000 nM and the IC50 (SW 962) was over 5000 nM. For the same compound, the IC50 5637 was 3090 nM, the IC50 (A101D) was over 5000 nM and the IC50 (ALL-PO) was 1910 nM. It also gave an IC50 (BHY) of over 5000 nM, an IC50 (BT-20) of over 5000 nM and an IC50 (Becker) of over 5000 nM. It also gave an IC50 (BXPC-3) of over 5000 nM, an IC50 (UACC-893) of over 5000 nM and an IC50 (YKG-1) of over 5000 nM.

Work on `COc1ccc(-c2ccc3c(N4CCOC[C@@H]4C)nc(N4CCOC[C@@H]4C)nc3n2)cc1CO` [AZD-8055] yielded an IC50 (CTB-1) of 272 nM, an IC50 (CTV-1) of 86.4 nM and an IC50 (Ca-Ski) of over 2000 nM. The IC50 (D-263MG) was 1330 nM, the IC50 (DMS-114) was 937 nM and the IC50 (ETK-1) was 894 nM. It also gave an IC50 (G-401) of 310 nM, an IC50 (GCT) of 1340 nM and an IC50 (HCC1806) of 933 nM. The IC50 (HEC-1) was 1180 nM, the IC50 (HT) was 294 nM and the IC50 (HT1197) was over 2000 nM. For the same compound, the IC50 (IA-LM) was 596 nM, the IC50 (KALS-1) was over 2000 nM and the IC50 (KP-4) was over 2000 nM. For the same compound, the IC50 (KYSE-520 cell line) was over 2000 nM, the IC50 (LAMA-84) was 180 nM and the IC50 (LB2241-RCC) was 302 nM. The IC50 (Lu-65) was 1260 nM, the IC50 (MCF7) was 405 nM and the IC50 (MG-63) was 274 nM. For the same compound, the IC50 (NB12) was over 2000 nM, the IC50 (NB13) was 1140 nM and the IC50 (NB69) was 135 nM. It also gave an IC50 (NCI-H1395) of over 2000 nM, an IC50 (NCI-H1563) of 789 nM and an IC50 (NCI-H1838) of over 2000 nM. It also gave an IC50 (NCI-H2087) of over 2000 nM, an IC50 (NCI-H2122) of over 2000 nM and an IC50 (NCI-H2126) of 1680 nM. For the same compound, the IC50 (NEC8) was 417 nM, the IC50 (OS-RC-2) was 1080 nM and the IC50 (SAS) was over 2000 nM. It also gave an IC50 (SK-MEL-24) of over 2000 nM, an IC50 (SK-MEL-28) of 559 nM and an IC50 (SK-N-FI) of 1560 nM. The IC50 (SK-NEP-1) was 625 nM, the IC50 (SW1783) was over 2000 nM and the IC50 (SW626) was over 2000 nM. It also gave an IC50 (SW684) of 1970 nM, an IC50 (SW948) of over 2000 nM and an IC50 (SW 962) of 472 nM. It also gave an IC50 5637 of 1770 nM, an IC50 (A101D) of 490 nM and an IC50 (ALL-PO) of 1440 nM. The IC50 (BHY) was 887 nM, the IC50 (BT-20) was 1220 nM and the IC50 (Becker) was 1520 nM. For the same compound, the IC50 (BXPC-3) was 888 nM, the IC50 (UACC-893) was 929 nM and the IC50 (YKG-1) was 1610 nM.
